Legend:
hDAT = biological target: T1, hDAT (Homo sapiens, UniProt Q01959); assay: Radioligand binding, hDAT ([3H]WIN35,428)
T1 construct: expressed in transfected cells; host or cells: HEK 293 cells (membrane preparation)
Method: (§1) Binding affinities at human monoamine receptors and transporters were assessed as previously reported. A detailed description of the methodology is provided in the Supplementary information.
(§2) The IC50 values from the radioligand binding assays were determined by nonlinear regression, using three independent concentration-response curves fitted to a one-site model. The Cheng-Prusoff equation was used to calculate Kᵢ values for the competing ligands. EC50 values were determined by applying nonlinear regression to concentration-response curves. Bias factors (β) were calculated based on the relative intrinsic activity approach. More detailed information can be found in the Supplementary information. Mean values for total number of HTR, change in body temperature from pre to post session (Δ°C), and total distance traveled (cm) for each drug dose were compared (p < 0.05) via Welch’s ANOVA with Dunnett’s T3 post test, comparing all doses to respective vehicle controls (0 mg/kg). Welch’s ANOVA with Dunnett’s T3 post test was also used to compare drug concentrations, but the data were compared to DOM in this case. Dose–response relationships for HTR and locomotor activities were plotted using bell-shaped curve fits, while temperature change data were plotted using four-parameter non-linear regression curve fits. The ascending phase of the HTR curve for each drug was used to determine ED50 potency values from four parameter non-linear regression fits. For combined DOM and DOAM administration, the plasma, brain tissue, and brain dialysate drug concentrations were compared using paired t-tests (p < 0.05).
(§3) 3.1 Assessment of receptor and transporter binding affinities
(§4) Membrane preparations were prepared from cells transfected with the respective target. The membrane preparations were then incubated with selective radioligands at concentrations equal to the corresponding Kd and displacement of the ligand by the drugs was measured. The difference between total binding and nonspecific binding (determined in the presence of selective competitors) was defined as specific binding of the radioligand to the target receptor. The following transfected cell lines were used for the binding assays: HEK 293 cells (h5-HT1A, h5-HT2A, h5-HT2B, h5-HT2C, and hD2 receptors, hDAT, hNET, and hSERT), Chinese hamster ovary cells (hα 1A receptor), and Chinese hamster lung cells (hα 2A receptor).
(§5) 3.1.1 Membrane preparations for receptor and transporter binding
(§6) For producing membrane preparations, transfected cells were harvested with trypsin/EDTA, washed with ice-cold phosphate buffered saline, and then pelleted by centrifugation (210 × g for 5 min at 4 °C). The pellets were frozen and stored at -80 °C until use. Frozen pellets were resuspended in 20 m L (receptor binding) or 400 m L (transporter binding) buffer (20 mM HEPES -NaOH, 10 mM EDTA, pH 7.4), and homogenized at 1,100 × g for 20 s (receptor binding) or 560 × g for 15 s (transporter binding); the homogenates were then centrifuged at 48,000 × g for 30 min at 4 °C. For receptor binding assays, the supernatants were discarded and the pellets were resuspended in 20 mL buffer (20 mM HEPES-NaOH, 0.1 mM EDTA, pH 7.4) and homogenized at 1 ,100 × g for 20 s. Centrifugation and discarding of the supernatant were repeated once, and the final pellet was then resuspended in buffer and homogenized.
(§7) 3.1.2 Serotonin 5-HT1A and 5-HT2A receptor binding
(§8) Competitive binding at the h5-HT1A and h5-HT2A receptor was determined using 0.90 nM [ 3H]8-hydroxy-2-(di-n-propylamine)tetralin ([ 3H]8-OH-DPAT; h5-HT1A receptor agonist) and 0.40 nM [3H]ketanserin (h5-HT2 receptor antagonist) as radioligands. […]
(§9) binding of the radioligands was defined as difference between total binding (binding buffer alone) and nonspecific binding determined in the presence of 10 μM pindolol (h5-HT1A receptor antagonist) or 10 μM spiperone (h 5-HT2A receptor antagonist).

h5-HT2B = h5-HT2B (Homo sapiens, UniProt P41595); assay: IP1 formation (Gαq-mediated signaling), h5-HT2B; type: cell-based; settings: for Emax: read-out: IP1 formation Emax h5-HT2B (95% CI), normalized to maximal effect of 5-HT
hSERT = biological target: T2, hSERT (Homo sapiens, UniProt P31645); assay: Radioligand binding, hSERT ([3H]citalopram)
T2 construct: expressed in transfected cells; host or cells: HEK 293 cells (membrane preparation)
Method: as §1, §2, §3, §4, §5, §6, §7, §8, §9

hNET = biological target: T3, hNET (Homo sapiens, UniProt P23975); assay: Radioligand binding, hNET (N-methyl-[3H]nisoxetine)
T3 construct: expressed in transfected cells; host or cells: HEK 293 cells (membrane preparation)
Method: as §1, §2, §3, §4, §5, §6, §7, §8, §9

[1] = hDAT Ki, mean (95% CI), HEK 293 membranes
[2] = hSERT Ki, mean (95% CI), HEK 293 membranes

h5-HT2B, sequence (P41595 whole entry): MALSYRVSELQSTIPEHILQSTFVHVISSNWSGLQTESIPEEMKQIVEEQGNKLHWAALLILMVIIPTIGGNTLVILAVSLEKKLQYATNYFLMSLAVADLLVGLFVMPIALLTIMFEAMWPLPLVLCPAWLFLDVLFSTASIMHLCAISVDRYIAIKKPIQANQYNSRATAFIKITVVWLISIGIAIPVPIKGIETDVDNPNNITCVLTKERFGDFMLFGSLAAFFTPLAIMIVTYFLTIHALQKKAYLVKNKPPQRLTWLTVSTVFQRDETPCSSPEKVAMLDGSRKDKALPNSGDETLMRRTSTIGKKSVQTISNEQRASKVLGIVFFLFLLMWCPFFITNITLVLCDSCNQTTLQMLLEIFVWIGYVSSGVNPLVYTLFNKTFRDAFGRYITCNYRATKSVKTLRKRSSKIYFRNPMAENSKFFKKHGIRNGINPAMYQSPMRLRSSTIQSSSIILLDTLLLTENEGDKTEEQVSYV
T2 sequence (P31645 whole entry): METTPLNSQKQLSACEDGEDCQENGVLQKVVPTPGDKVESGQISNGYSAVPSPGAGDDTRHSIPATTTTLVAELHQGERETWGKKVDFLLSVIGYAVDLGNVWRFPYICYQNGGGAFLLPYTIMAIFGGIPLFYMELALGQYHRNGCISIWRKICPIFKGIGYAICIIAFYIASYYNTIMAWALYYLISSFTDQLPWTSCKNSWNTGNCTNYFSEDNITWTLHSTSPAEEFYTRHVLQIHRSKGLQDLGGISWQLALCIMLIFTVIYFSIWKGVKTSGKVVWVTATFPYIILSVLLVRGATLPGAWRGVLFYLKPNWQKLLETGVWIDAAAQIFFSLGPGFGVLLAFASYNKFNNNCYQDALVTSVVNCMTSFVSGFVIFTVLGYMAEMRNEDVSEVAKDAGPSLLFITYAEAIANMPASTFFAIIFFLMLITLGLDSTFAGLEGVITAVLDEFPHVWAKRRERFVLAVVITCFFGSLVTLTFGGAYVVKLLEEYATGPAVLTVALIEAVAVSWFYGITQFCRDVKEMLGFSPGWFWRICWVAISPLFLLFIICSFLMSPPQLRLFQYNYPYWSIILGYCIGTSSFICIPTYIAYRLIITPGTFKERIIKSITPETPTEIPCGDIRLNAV
T1 sequence (Q01959 whole entry): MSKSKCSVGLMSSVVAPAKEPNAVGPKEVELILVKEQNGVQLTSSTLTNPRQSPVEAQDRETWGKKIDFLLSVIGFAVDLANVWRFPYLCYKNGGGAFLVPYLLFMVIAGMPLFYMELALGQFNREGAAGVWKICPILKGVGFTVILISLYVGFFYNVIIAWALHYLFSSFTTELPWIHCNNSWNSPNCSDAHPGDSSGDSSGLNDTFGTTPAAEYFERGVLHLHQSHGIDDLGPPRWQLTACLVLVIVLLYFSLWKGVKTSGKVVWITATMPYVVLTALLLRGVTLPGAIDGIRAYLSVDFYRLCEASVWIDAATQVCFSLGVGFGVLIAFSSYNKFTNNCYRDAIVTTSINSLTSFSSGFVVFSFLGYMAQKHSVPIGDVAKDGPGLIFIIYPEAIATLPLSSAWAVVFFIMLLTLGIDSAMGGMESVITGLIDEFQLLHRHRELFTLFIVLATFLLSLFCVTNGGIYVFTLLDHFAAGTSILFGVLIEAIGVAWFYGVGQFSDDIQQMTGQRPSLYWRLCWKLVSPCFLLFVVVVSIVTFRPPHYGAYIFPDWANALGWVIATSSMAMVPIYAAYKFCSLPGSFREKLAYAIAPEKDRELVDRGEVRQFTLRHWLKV
T3 sequence (P23975 whole entry): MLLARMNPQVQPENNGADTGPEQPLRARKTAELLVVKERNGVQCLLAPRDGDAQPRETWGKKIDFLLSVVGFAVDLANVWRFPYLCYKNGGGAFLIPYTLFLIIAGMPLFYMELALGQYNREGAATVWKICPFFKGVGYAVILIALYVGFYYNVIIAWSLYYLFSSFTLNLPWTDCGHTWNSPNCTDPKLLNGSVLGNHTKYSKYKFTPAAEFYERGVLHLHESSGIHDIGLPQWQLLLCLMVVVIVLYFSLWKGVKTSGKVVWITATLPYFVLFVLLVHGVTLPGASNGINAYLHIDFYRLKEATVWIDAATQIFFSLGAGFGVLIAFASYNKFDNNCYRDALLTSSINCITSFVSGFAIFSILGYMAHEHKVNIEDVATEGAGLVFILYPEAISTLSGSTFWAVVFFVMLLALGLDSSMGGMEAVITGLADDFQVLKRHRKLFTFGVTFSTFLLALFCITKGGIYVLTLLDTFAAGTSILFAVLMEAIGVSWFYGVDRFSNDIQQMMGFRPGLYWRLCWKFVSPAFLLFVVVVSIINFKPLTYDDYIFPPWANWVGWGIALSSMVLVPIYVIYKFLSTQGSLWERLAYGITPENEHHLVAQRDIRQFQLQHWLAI

| Structure (SMILES) | Ki (hDAT; [1]) [µM] | EC50 (h5-HT2B) [µM] | Emax (h5-HT2B) [%] | Ki (hSERT; [2]) [µM] | Ki (hNET) [µM] | Ki (hDAT; Ki DAT, text value (range DAT and SERT 3.6–4.6)) [µM] | Ki (hSERT; Ki SERT, text value (range DAT and SERT 3.6–4.6)) [µM] |
| --- | --- | --- | --- | --- | --- | --- | --- |
| COc1ccc(OC)c(CC(C)N)c1.Cl (centres unmarked) [2,5-DMA, 2,5-Dimethoxyamphetamine hydrochloride] | > 8 | 93.3 | 94 | > 7 | > 8 |  |  |
| CCc1cc(OC)c(CC(C)N)cc1OC (centres unmarked) [DOET, 4-ethyl-2,5-dimethoxyamphetamine] | > 8 | 0.236 | 95 | > 7 | > 8 |  |  |
| CCCCCc1cc(OC)c(CC(C)N)cc1OC (centres unmarked) [DOAM, 4-amyl-2,5-dimethoxyamphetamine] | 3.64 | 0.572 | 106 | 4.63 | > 8 | 3.6 | 4.6 |
| CCCCc1cc(OC)c(CC(C)N)cc1OC (centres unmarked) [DOBU, 4-butyl-2,5-dimethoxyamphetamine] | > 8 | 0.57 | 122 | > 7 | > 8 |  |  |
| CCCc1cc(OC)c(CC(C)N)cc1OC.Cl (centres unmarked) [DOPR, 4-propyl-2,5-dimethoxyamphetamine hydrochloride] | > 8 | 0.228 | 96 | > 7 | > 8 |  |  |
| COc1cc(CC(C)N)c(OC)cc1C (centres unmarked) [DOM, 4-methyl-2,5-dimethoxyamphetamine] | > 8 | 0.688 | 91 | > 7 | > 8 |  |  |

Reference: publication PMC12916490 (Molecular Psychiatry, 2025)
